Laboratory results published in patent US20080287480A1, “Therapeutic Combination Comprising a Nmda Receptors Blocker and a Narcotic Analgesic Substance” (Chiesi Farmaceutici S.p.A., priority 2005, published 2008).
Read-outs that look alike come from different tables or passages of the source.

How the values were obtained:
Nerve injured rats = experiment: Mechanical allodynia (Electronic Von Frey) in chronic constriction injury model of neuropathic pain; assay type: in vivo, rat; details: MPE ± s.e.m.; 60 minutes after administration; CHF3381 30 mg/kg p.o., morphine 0.1 mg/kg s.c., alone or combined; vehicle 0.15±0.06
From the text: The animal model of chronic pain was a slight modification of the chronic constriction injury model of neuropathic pain originally described by Bennett G J et al in Pain 1988, 33, 87-107.
Nerve injured rats were placed on an elevated screen in a clear testing chamber and allowed to acclimate to the testing environment before any measurements were taken. The mechanical stimulus was delivered underneath to the plantar surface of the left hind paw of the rat by using the automated testing device Electronic Von Frey.
A steel rod was pushed against the hind paw with ascending force. The ramping of the force went from 0 to 50 g over a 20 s period. When the animal withdrew its hind paw, the mechanical stimulus was automatically withdrawn and the force at which the animal withdrew its paw was recorded. To quantify the mechanical sensitivity of the hind paws, withdrawal thresholds were taken from five consecutive trials with at least 10 s between each trial. The withdrawal threshold was taken to be the mean of the five trials (baseline value). […]
The values are expressed as Maximum Possible Effect (MPE)±s.e.m
The MPE value was calculated as follow: MPE=(PDR−IBR)/(CBR−IBR), where PDR is the post drug response of the ipsilateral paw, IBR is the ipsilateral paw baseline response and CBR is the contralateral paw baseline response. […]

Neuropathic rats [1] = experiment: Cold allodynia (chilled metal floor) in chronic constriction injury model of neuropathic pain; assay type: in vivo, rat; details: mean ± s.e.m.; 60 minutes after treatment; 5±1° C. floor; CHF3381 30 mg/kg p.o., morphine 0.1 mg/kg s.c., alone or combined; vehicle 2.90±0.41 s
Experimental: (§1) The animal model of chronic pain was the same of Example 1.
Neuropathic rats were placed upon a metal floor chilled by an underlying water bath (5±1° C.) for a maximum of 20 s. The animals responded to the contact with the cold surface by lifting the paw on the ligated side off the floor. […] For each set of experiments, animals were pre-screened twice with 20 min interval between tests, in order to select animals displaying clear signs of allodynia, i.e. animals with a paw withdrawal latency on the ligated side of <10 s in both trials. […] The latency to paw withdrawal was then determined at 60 minutes after the administration of vehicle, CHF3381 (30 mg/kg p.o.) alone, morphine (0.1 mg/kg s.c.) alone or their combination.

Neuropathic rats [2] = experiment: Mechanical hyperalgesia (analgesymeter, Randall method) in chronic constriction injury model of neuropathic pain; assay type: in vivo, rat; details: mean ± s.e.m.; CHF3381 30 mg/kg p.o., morphine 0.1 mg/kg s.c., alone or combined; cut-off 500 g; vehicle 105.7±8.2 g
Experimental: as §1
Nerve injured rats developed mechanical hyperalgesia […]. Indeed, in these animals the mean paw threshold was decreased to about 110 g on the ligated side compared to the contralateral side (about 350 g; P<0.01).
Mechanical hyperalgesia was assessed in neuropathic rats by using an analgesymeter according to the method reported in Randall L O et al (Arch Int Pharmacodyn Ther 1957, 111, 409-419). Mechanical nociceptive thresholds were evaluated by measuring paw withdrawal thresholds to an increasing pressure stimulus applied to the distal portion of the plantar surface of the hind paw. The site of the stimulation was on area of the hind paw between the pads at the base of the third and forth digit. A cut-off was set at 500 g to prevent any tissue damage and the endpoint was taken as a complete paw withdrawal.

mice = details: mean ± s.e.m.
Experimental: The animal model of inflammatory was a slight modification of the mouse paw formalin test originally described by Wheeler-Aceto H et al in Psychopharmacology 104, 35-44 (1991). Before formalin injection, mice were placed individually into clear plastic cylinders. After adaptation to the cage, 20 μl of 1% formalin was injected into the plantar surface of the left hind paw. Morphine was administered 30 min before formalin injection.
Mice, divided randomly into eight groups (13-16 animals/group), received treatment once daily for 4 days as follows: groups g1 and g2 received saline, 10 ml/kg i.p.; groups g3 and g4 received morphine 50 mg/kg i.p.; group g5 received morphine 50 mg/kg and CHF3381 30 mg/kg i.p.; group g6 received morphine 50 mg/kg and CHF3381 60 mg/kg i.p. On day 5, the mice received saline (g1 and g3), or morphine 6 mg/kg, i.p. (g2, g4, g5 and g6).
The amount of time, in seconds, the animals spent licking and flinching the injected paw from 10 to 40 min after formalin injection, was used as measurement of pain intensity.
The level of significance was set at P<0.05.

## CN1CC[C@]23c4c5ccc(O)c4O[C@H]2[C@@H](O)C=C[C@H]3[C@H]1C5 [morphine]
Nerve injured rats
  Maximum Possible Effect (MPE) on paw withdrawal threshold to mechanical stimulation: 0.21±0.07
Neuropathic rats [1]
  mean paw withdrawal latency (cold allodynia): 5.17 ± 0.86 s
Neuropathic rats [2]
  Paw withdrawal threshold (mechanical hyperalgesia): 105.8 ± 6.0 g
mice; g2: saline i.p. days 1-4, morphine 6 mg/kg i.p. day 5, saline control g1 119.9±17.0
  mean licking time, 10 to 40 min after formalin injection: 65.9 ± 18.3 s
mice; g3: morphine 50 mg/kg i.p. days 1-4, saline i.p. day 5
  mean licking time, 10 to 40 min after formalin injection: 143.9 ± 19.2 s
mice; g4: morphine 50 mg/kg i.p. days 1-4, morphine 6 mg/kg i.p. day 5
  licking time, 10 to 40 min after formalin injection: 112.1 ± 13.4 s
